BindingDB's records for doi:10.1124/mol.58.6.1601 (University of California Irvine, 2000)

What was measured:
[1] = target: T1, Cysteinyl leukotriene receptor 1 (Homo sapiens, UniProt Q9Y271)
T1 sequence (Q9Y271 whole entry): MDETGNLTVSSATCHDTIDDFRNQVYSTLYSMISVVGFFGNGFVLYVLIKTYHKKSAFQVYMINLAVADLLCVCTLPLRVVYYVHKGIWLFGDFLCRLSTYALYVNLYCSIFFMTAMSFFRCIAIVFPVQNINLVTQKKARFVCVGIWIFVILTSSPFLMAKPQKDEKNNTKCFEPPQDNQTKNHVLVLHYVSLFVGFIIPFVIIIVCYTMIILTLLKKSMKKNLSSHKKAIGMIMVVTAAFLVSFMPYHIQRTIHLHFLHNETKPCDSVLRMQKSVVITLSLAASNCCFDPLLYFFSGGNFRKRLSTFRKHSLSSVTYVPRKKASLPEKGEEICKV

[2] = target: T2, Cysteinyl leukotriene receptor 2 (Homo sapiens, UniProt Q9NS75)
T2 sequence (Q9NS75 whole entry): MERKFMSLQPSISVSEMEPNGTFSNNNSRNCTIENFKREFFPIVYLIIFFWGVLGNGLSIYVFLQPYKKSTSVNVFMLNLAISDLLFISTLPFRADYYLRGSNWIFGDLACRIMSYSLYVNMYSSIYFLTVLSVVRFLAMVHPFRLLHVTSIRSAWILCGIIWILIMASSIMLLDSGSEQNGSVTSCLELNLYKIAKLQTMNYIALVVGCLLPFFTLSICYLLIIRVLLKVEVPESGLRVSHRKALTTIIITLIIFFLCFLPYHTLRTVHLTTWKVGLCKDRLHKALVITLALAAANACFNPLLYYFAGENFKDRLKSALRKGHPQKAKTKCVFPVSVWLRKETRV

Ki [1]	Ki [2]	Compound
10.4 nM	1000 nM	CN(C)C(=O)CCSC(SCCC(=O)O)c1cccc(/C=C/c2ccc3ccc(Cl)cc3n2)c1 (stereo not drawn) [3-(((3-(2-(7-chloroquinoline-2-yl)ethenyl)phenyl)((3-dimethylamino-3-oxopropyl)thio)methyl)thio)propanoic acid]
–	300 nM	CCCCC/C=C\C/C=C/C=C/C=C/[C@@H](Sc1ccc(C(=O)O)cc1)[C@@H](O)CCCC(=O)O [CAS_134733-55-4]
